Data: patent publication US20230159597A1 (priority 2020, published 2023)
[ ]: non-standard residue; d: D form. The star is where a group is joined. X1 = CC(C)CCC[C@@H](C)[C@H]1CC[C@H]2[C@@H]3CC=C4C[C@@H](OC(=O)C*)CC[C@]4(C)[C@H]3CC[C@]12C; PEG4 = NCCOCCOCCOCCOCCC(=O)O

How the values were obtained:
SARS CoV-2 glycoprotein = SARS CoV-2 glycoprotein (Severe acute respiratory syndrome coronavirus 2, UniProt P0DTC2); test: cell-based
SARS-CoV-2 = type: cell-based

Row | Molecule | IC50 (ZEBOV Mayinga) | Max % inh (ZEBOV Mayinga) | IC50 (ZEBOV Gueckedou C07) | Max % inh (ZEBOV Gueckedou C07) | IC50 (Bundibugyo EBOV) | Max % inh (Bundibugyo EBOV) | IC90 (SARS CoV-2 glycoprotein) | reduction in SARS-CoV-2 infection (SARS-CoV-2)
1 | CC[C@H](C)[C@H](NC(=O)CNC(=O)[C@H](CO)NC(=O)CNC(=O)[C@H](CCCNC(=N)N)NC(=O)[C@H](CCCNC(=N)N)NC(=O)[C@H](CCCNC(=N)N)NC(=O)[C@H](CCC(N)=O)NC(=O)[C@H](CCCNC(=N)N)NC(=O)[C@H](CCCNC(=N)N)NC(=O)[C@H](CCCCN)NC(=O)[C@H](CCCCN)NC(=O)[C@H](CCCNC(=N)N)NC(=O)CNC(=O)[C@H](Cc1ccc(O)cc1)NC(C)=O)C(=O)N[C@@H](CCC(=O)O)C(=O)N1CCC[C@H]1C(=O)N[C@@H](Cc1c[nH]cn1)C(=O)N[C@@H](CC(=O)O)C(=O)N[C@@H](Cc1c[nH]c2ccccc12)C(=O)N[C@H](C(=O)N[C@@H](CCCCN)C(=O)N[C@@H](CC(N)=O)C(=O)N[C@H](C(=O)N[C@H](C(=O)N[C@@H](CC(=O)O)C(=O)N[C@@H](CCCCN)C(=O)N[C@H](C(=O)N[C@@H](CC(=O)O)C(=O)N[C@@H](CCC(N)=O)C(=O)N[C@H](C(=O)N[C@H](C(=O)N[C@@H](Cc1c[nH]cn1)C(=O)N[C@@H](CC(=O)O)C(=O)N[C@@H](Cc1ccccc1)C(=O)N[C@H](C(=O)N[C@@H](CC(=O)O)C(=O)N[C@@H](CCCCN)C(=O)NCC(=O)N[C@@H](CO)C(=O)NCC(=O)N[C@@H](CO)C(=O)NCC(=O)N[C@@H](CSCC(=O)NCCOCCOCCOCCOCCC(=O)O[C@H]1CC[C@@]2(C)C(=CC[C@H]3[C@@H]4CC[C@H]([C@H](C)CCCC(C)C)[C@@]4(C)CC[C@@H]32)C1)C(N)=O)C(C)C)[C@@H](C)CC)[C@@H](C)CC)[C@@H](C)CC)[C@@H](C)O)[C@@H](C)CC)[C@@H](C)O [TAT-EBO-PEG4-Chol] | 50 nM | 97.9% | 20 nM | 97.5% | 70 nM | 98.5% | – | –
2 | CC[C@H](C)[C@H](NC(=O)CNC(=O)[C@H](CO)NC(=O)CNC(=O)[C@H](CCCNC(=N)N)NC(=O)[C@H](CCCNC(=N)N)NC(=O)[C@H](CCCNC(=N)N)NC(=O)[C@H](CCC(N)=O)NC(=O)[C@H](CCCNC(=N)N)NC(=O)[C@H](CCCNC(=N)N)NC(=O)[C@H](CCCCN)NC(=O)[C@H](CCCCN)NC(=O)[C@H](CCCNC(=N)N)NC(=O)CNC(=O)[C@H](Cc1ccc(O)cc1)NC(C)=O)C(=O)N[C@@H](CCC(=O)O)C(=O)N1CCC[C@H]1C(=O)N[C@@H](Cc1c[nH]cn1)C(=O)N[C@@H](CC(=O)O)C(=O)N[C@@H](Cc1c[nH]c2ccccc12)C(=O)N[C@H](C(=O)N[C@@H](CCCCN)C(=O)N[C@@H](CC(N)=O)C(=O)N[C@H](C(=O)N[C@H](C(=O)N[C@@H](CC(=O)O)C(=O)N[C@@H](CCCCN)C(=O)N[C@H](C(=O)N[C@@H](CC(=O)O)C(=O)N[C@@H](CCC(N)=O)C(=O)N[C@H](C(=O)N[C@H](C(=O)N[C@@H](Cc1c[nH]cn1)C(=O)N[C@@H](CC(=O)O)C(=O)N[C@@H](Cc1ccccc1)C(=O)N[C@H](C(=O)N[C@@H](CC(=O)O)C(=O)N[C@@H](CCCCN)C(=O)NCC(=O)N[C@@H](CO)C(=O)NCC(=O)N[C@@H](CO)C(=O)NCC(=O)N[C@@H](CSCC(=O)NCCOCCOCCOCCOCCC(=O)Oc1c(C)c(C)c2c(c1C)CC[C@@](C)(CCC[C@H](C)CCC[C@H](C)CCCC(C)C)O2)C(N)=O)C(C)C)[C@@H](C)CC)[C@@H](C)CC)[C@@H](C)CC)[C@@H](C)O)[C@@H](C)CC)[C@@H](C)O [TAT-EBO-PEG4-Toco] | 700 nM | 96.9% | 100 nM | 100% | 310 nM | 100% | – | –
3 | Ac-SLTQINTTLLNLEYEMKKLEEVVKKLEESYIDLKELGSG[PEG4]C(X1)-NH2 [MERS lipid-peptide] | – | – | – | – | – | – | 200 nM | 100%
